Molecular target: T1, LSD1 (lysine-specific demethylase 1) (Homo sapiens, UniProt O60341)
T1 construct: gene KDM1A; residues 172–852
Assay: TR-FRET (LANCE) demethylase assay with biotinylated histone H3K4me1 peptide
Assay type: biochemical

`CN(C)CC(c1ccc(OC(=O)N(C)CCN(C)C2CC2c2ccccc2)cc1)C1(O)CCCCC1` (stereo not shown) [Nuc01] was tested. Which IC50 did it give?
The IC50 was 530 nM.

Reference: publication PMC12384447, “Effect of a Novel Antidepressant and Anticancer Nuc01 on Depression in Cancer Survivors” (Current Issues in Molecular Biology, 2025)
